The values below come from patent US9120761B2, “Selective FAK inhibitors” (priority 2011, dated 2015).

Test [1] deals with VEGFR3 cytoplasmic domain (Homo sapiens, UniProt P35916, DEL949-1002). Nature of the test: VEGFR3 biochemical assay (Alpha Screen). Particulars: modified form (*): N-terminal Hexa-His-fusion protein, amino acids 818-1177 lacking 949-1002.
Test [2] relates to MDA-231-LNA cells. In words: 2D cellular proliferation assay. It counts as cell-based. To be noted: 72 h, 3 days incubation, resazurin.
For test [3], the target named is FAK enzyme (catalytic domain, amino acids 411-686) (Homo sapiens (Human), UniProt Q05397). In words: FAK biochemical Alpha Screen assay. Particulars: 80 μM ATP.
In test [4] the target is N-terminally GST-fused purified FAK enzyme (Homo sapiens (Human), UniProt Q05397). Nature of the test: FAK Biacore SPR assay. In kind it is binding. (In SPR one partner is held on a chip, and binding of the other changes the refractive index at the surface.)
Procedure: Binding parameters of compounds were determined using a Biacore™ S51 sensor. An anti-GST antibody was immobilized onto a CM5 chip by primary amine-coupling in accordance with the manufacturer's recommendations.
Concentration series' of the test compounds were injected over the spots at 25° C.
After the injection cycle of a compound the chip surface was regenerated with 10 mM glycine-HCl, pH2.2 before capturing the enzyme again.
Test [5] has as its system MDA-231-LNA tumours. In words: Combination study efficacy and tolerability with dasatinib, IMFP MDA-231-LNA tumours. Particulars: Compound 3 40 mg/kg p.o. BID, dasatinib 30 mg/kg p.o. BID; Balb/c SCID mice, MDA-231-LNA primary tumour. It counts as in vivo.
Procedure: Treatment commenced when tumours were palpable (day 9 post cell injection) and continued for the duration of the experiment. The formulations used were the same as those above, with the vehicle (I-IPMC-SV, 0.2 ml), being administered as a control.
As additional markers of potential hepatotoxicity, liver weight at harvest as well as alanine aminotransferase (ALT) and aspartate transaminase (AST) levels were determined in plasma 12 hours after the final dose of drug.
In test [6] the target is VEGFR3 cytoplasmic domain (Homo sapiens, UniProt P35916). In words: VEGFR3 biochemical assay (Alpha Screen). To be noted: N-terminal GST-fusion protein (amino acids 798-1298), 500 μM ATP.
Test [7] concerns HeyA8, SKOV3ip1, and HeyA8-MDR models. To be noted: cited from earlier work.
For test [8], the system named is taxane-sensitive (SKOV3ip1 and HeyA8) and taxane-resistant (HeyA8-MDR) ovarian cancer cell lines. Particulars: cited from earlier work.
Test [9] concerns the target FAK (Homo sapiens (Human), UniProt Q05397). To be noted: in vitro; cited from earlier work.

pIC50, pKd: −log10 of the molar value. Read-outs that look alike come from different tables or passages of the source.

VEGFR3 cytoplasmic domain (Homo sapiens, UniProt P35916), sequence (P35916 25-1363 limits assumed): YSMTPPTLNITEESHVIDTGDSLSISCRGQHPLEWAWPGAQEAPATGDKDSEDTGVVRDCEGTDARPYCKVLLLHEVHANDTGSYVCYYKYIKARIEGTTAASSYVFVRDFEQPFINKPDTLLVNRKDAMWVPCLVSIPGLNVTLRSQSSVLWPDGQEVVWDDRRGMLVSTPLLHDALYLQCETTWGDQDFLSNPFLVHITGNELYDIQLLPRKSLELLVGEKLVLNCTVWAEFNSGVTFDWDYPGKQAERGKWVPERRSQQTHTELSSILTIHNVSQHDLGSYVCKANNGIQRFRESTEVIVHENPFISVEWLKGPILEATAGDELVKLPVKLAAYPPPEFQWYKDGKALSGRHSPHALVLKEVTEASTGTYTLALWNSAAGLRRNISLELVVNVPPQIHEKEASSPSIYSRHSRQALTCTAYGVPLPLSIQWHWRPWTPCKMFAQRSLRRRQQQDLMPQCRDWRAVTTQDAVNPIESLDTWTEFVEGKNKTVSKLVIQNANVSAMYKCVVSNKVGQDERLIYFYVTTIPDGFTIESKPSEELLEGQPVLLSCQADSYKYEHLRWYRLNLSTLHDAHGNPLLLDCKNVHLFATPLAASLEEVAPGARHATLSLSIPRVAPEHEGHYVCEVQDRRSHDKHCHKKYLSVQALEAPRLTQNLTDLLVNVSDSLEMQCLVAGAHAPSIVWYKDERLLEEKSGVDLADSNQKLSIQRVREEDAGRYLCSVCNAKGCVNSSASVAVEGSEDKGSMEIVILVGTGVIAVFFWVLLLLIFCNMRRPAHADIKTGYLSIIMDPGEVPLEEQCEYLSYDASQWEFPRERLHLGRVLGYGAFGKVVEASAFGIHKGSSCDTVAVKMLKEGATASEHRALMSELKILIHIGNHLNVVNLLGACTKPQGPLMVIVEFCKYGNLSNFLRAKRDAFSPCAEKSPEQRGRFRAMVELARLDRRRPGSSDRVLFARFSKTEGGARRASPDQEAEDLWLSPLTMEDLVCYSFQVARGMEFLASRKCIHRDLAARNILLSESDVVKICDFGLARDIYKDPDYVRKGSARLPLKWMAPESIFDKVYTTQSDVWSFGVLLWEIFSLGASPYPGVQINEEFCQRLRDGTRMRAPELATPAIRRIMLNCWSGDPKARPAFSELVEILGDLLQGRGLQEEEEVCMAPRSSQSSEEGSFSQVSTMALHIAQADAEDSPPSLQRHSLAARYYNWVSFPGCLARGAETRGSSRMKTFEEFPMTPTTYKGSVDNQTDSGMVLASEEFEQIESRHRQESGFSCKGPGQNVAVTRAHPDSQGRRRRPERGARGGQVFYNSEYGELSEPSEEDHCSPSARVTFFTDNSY
FAK enzyme (catalytic domain, amino acids 411-686), sequence (Q05397 411-686): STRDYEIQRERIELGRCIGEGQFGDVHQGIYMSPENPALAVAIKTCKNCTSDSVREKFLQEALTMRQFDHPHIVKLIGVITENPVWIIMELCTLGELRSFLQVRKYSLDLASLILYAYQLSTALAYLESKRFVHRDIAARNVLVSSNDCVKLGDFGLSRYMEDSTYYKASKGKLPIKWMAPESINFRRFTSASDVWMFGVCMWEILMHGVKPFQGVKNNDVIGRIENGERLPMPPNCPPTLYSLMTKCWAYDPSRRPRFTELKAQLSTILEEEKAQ
VEGFR3 cytoplasmic domain (Homo sapiens, UniProt P35916, DEL949-1002), sequence (P35916 with tags, fused parts or gaps DEL949-1002 limits assumed): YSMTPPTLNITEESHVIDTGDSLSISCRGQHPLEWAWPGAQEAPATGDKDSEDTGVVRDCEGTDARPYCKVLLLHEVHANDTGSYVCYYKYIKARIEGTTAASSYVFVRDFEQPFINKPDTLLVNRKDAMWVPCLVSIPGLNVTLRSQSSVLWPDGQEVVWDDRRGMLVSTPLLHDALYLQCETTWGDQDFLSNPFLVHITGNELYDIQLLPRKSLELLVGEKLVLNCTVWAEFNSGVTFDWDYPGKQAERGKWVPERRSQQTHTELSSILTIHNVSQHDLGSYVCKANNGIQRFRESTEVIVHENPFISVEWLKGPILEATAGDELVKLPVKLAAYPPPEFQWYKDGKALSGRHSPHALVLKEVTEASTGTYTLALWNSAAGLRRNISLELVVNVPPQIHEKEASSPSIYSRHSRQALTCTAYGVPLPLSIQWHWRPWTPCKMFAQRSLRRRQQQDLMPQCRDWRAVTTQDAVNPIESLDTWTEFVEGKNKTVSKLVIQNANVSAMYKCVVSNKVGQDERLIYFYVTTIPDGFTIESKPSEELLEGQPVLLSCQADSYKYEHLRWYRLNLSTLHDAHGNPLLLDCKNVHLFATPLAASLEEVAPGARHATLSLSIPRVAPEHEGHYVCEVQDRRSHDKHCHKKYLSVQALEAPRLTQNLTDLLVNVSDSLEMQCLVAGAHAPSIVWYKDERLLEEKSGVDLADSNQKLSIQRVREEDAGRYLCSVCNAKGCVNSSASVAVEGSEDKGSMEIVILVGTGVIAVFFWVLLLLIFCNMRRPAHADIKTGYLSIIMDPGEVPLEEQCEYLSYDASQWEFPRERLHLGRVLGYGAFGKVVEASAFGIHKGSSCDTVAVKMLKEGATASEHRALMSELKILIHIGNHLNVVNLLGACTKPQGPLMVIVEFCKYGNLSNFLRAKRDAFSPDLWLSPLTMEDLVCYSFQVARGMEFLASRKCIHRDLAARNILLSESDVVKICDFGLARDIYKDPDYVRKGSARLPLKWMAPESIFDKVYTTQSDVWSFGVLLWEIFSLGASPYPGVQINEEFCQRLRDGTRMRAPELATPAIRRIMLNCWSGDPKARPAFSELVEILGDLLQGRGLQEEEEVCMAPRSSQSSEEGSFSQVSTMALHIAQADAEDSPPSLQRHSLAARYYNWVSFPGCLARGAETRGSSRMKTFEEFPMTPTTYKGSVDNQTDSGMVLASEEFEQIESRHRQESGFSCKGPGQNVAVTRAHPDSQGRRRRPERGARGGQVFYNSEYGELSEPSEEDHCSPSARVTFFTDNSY
N-terminally GST-fused purified FAK enzyme, sequence (Q05397 whole entry, the tested form may be a part): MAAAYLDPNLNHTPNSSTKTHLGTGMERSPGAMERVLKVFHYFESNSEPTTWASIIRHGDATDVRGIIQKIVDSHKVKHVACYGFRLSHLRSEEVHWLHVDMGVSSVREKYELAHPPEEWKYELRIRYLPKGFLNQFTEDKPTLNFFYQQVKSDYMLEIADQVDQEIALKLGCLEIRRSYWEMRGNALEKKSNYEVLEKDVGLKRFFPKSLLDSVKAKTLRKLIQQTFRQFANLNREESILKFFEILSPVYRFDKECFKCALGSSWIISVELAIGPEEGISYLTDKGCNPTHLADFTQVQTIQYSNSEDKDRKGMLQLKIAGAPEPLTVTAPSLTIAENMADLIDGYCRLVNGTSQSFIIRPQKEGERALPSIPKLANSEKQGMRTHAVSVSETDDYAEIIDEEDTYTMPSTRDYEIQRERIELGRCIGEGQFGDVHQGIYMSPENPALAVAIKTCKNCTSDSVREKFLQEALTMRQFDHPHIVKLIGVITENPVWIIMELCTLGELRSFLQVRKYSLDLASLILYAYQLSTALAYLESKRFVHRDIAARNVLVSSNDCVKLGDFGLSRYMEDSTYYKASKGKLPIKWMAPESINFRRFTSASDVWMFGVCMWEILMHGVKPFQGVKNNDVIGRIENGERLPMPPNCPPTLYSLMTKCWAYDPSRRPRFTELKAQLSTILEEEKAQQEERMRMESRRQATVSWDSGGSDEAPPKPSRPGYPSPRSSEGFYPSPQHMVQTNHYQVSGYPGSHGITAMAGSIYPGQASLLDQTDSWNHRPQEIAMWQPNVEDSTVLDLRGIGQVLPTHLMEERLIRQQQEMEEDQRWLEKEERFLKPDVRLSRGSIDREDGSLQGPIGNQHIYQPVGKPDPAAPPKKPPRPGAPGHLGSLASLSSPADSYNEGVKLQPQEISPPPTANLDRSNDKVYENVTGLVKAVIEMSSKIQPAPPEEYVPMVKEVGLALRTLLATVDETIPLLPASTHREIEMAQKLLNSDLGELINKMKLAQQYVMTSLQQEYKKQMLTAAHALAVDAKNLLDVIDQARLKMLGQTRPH
FAK, sequence (Q05397 whole entry): as the sequence (Q05397 whole entry, the tested form may be a part) above

A word on the pIC50: it is the IC50 on a negative log10 scale, so that one unit is a factor of ten. A low value points to a large IC50. As a reminder, the pKd is −log10 of the Kd, conventionally taken in molar units. A high value points to a small Kd. For the molecule `COc1cc(N2CCNCC2)ccc1Nc1ncc(C(F)(F)F)c(CCc2ccccc2CC(N)=O)n1` [Compound 1, 2-(2-(2-(2-((2-Methoxy-4-(piperazin-1-yl)phenyl)amino)-5-(trifluoromethyl)pyrimidin-4-yl)ethyl)phenyl)acetamide], the pIC50 in test [1] is 6.56; in test [2], 5.84; in [3], 8.72. In test [4] (Biacore S51, 25° C.), the pKd is 9.54.
On the same counts, the results for `COc1cc(C2CCNCC2)ccc1Nc1ncc(C(F)(F)F)c(CCc2ccccc2CC(N)=O)n1` [Compound 2, 2-(2-(2-(2-((2-Methoxy-4-(piperidin-4-yl)phenyl)amino)-5-(trifluoromethyl)pyrimidin-4-yl)ethyl)phenyl)acetamide] are 5.43, 5.56, 8.15 and 9.13.
Consider `COc1cc(C2CCN(C)CC2)ccc1Nc1ncc(C(F)(F)F)c(CCc2ccccc2CC(N)=O)n1` [Compound 3, 2-(2-(2-(2-((2-Methoxy-4-(1-methylpiperidin-4-yl)phenyl)amino)-5-(trifluoromethyl)pyrimidin-4-yl)ethyl)phenyl)acetamide], for which the “TGI based on tumour weight” value in [5] amounted to 42%. Moreover, the values for the pIC50 in [6], in test [2] and in test [3] were 6.27, 5.18 and 8.66, respectively. In test [4] (Biacore S51, measured using an extended washing step of 30 minutes), this molecule had a pKd of 9.68.
`CCN1CCC(c2ccc(Nc3ncc(C(F)(F)F)c(CCc4ccccc4CC(N)=O)n3)c(OC)c2)CC1` [Compound 4, 2-(2-(2-(2-((4-(1-Ethylpiperidin-4-yl)-2-methoxyphenyl)amino)-5-(trifluoromethyl)pyrimidin-4-yl)ethyl)phenyl) acetamide]: the pIC50 in test [2] is 5.72; in test [3], 8.44. Also, the pKd in test [4] (Biacore S51, 25° C.) was 8.82.
Regarding `COc1cc(C2CCNCC2)ccc1Nc1ncc(C(F)(F)F)c(CCc2cccc(C(N)=O)c2)n1` [Compound 5, 3-(2-(2-((2-Methoxy-4-(piperidin-4-yl)phenyl)amino)-5-(trifluoromethyl)pyrimidin-4-yl)ethyl)benzamide], the pIC50 is 5.24 in test [1], 5.51 in test [2] and 8.14 in test [3].
Take `COc1cc(C2CCN(C)CC2)ccc1Nc1ncc(C(F)(F)F)c(CCc2cccc(C(N)=O)c2)n1` [Compound 6, 3-(2-(2-((2-Methoxy-4-(1-methylpiperidin-4-yl)phenyl)amino)-5-(trifluoromethyl)pyrimidin-4-yl)ethyl)benzamide]: the figures for the pIC50 in test [6], in [2] and in test [3] were 4.98, 5.65 and 8.68, respectively. This molecule also showed a pKd in test [4] (Biacore S51, 25° C.) of 8.54.
`CCN1CCC(c2ccc(Nc3ncc(C(F)(F)F)c(CCc4cccc(C(N)=O)c4)n3)c(OC)c2)CC1` [Compound 7]: the pIC50 in [1] is 4.88; in test [2], 5.31; in test [3], 8.03.
As for `CCc1cc(C2CCNCC2)ccc1Nc1ncc(C(F)(F)F)c(CCc2ccccc2CC(N)=O)n1` [Compound 8, 2-(2-(2-(2-((2-Ethyl-4-(piperidin-4-yl)phenyl)amino)-5-(trifluoromethyl)pyrimidin-4-yl)ethyl)phenyl)acetamide], the pIC50 was 5.93 in test [6] and 5.61 in test [2].
Turning to `CCc1cc(C2CCN(C)CC2)ccc1Nc1ncc(C(F)(F)F)c(CCc2ccccc2CC(N)=O)n1` [Compound 9, 2-(2-(2-(2-((2-Ethyl-4-(1-methylpiperidin-4-yl)phenyl)amino)-5-(trifluoromethyl)pyrimidin-4-yl)ethyl)phenyl)acetamide], in test [2], the pIC50 was 5.54.
With `NC(=O)Cc1ccccc1CCc1nc(Nc2ccc(C3CCNCC3)cc2OC(F)(F)F)ncc1C(F)(F)F` [Compound 10, 2-(2-(2-(2-((4-(Piperidin-4-yl)-2-(trifluoromethoxy)phenyl)amino)-5-(trifluoromethyl)pyrimidin-4-yl)ethyl)phenyl)acetamide], the figures for the pIC50 in test [6], in [2] and in [3] were less than 4.18, 5.77 and 8.57, respectively. This molecule showed a pKd in test [4] (Biacore S51, 25° C.) of 9.10.
`CN1CCC(c2ccc(Nc3ncc(C(F)(F)F)c(CCc4ccccc4CC(N)=O)n3)c(OC(F)(F)F)c2)CC1` [Compound 11, 2-(2-(2-(2-((4-(1-Methylpiperidin-4-yl)-2-(trifluoromethoxy)phenyl)amino)-5-(trifluoromethyl)pyrimidin-4-yl)ethyl)phenyl)acetamide]: the pIC50 in test [6] was 4.22; in test [2] it was 5.59; in [3], 8.66. This molecule also showed a pKd in [4] (Biacore S51, 25° C.) of 8.77.
As to `CN1CCC(c2ccc(Nc3ncc(C(F)(F)F)c(CCc4ccccc4CC(N)=O)n3)c(F)c2)CC1` [Compound 13, 2-(2-(2-(2-((2-Fluoro-4-(1-methylpiperidin-4-yl)phenyl)amino)-5-(trifluoromethyl)pyrimidin-4-yl)ethyl)phenyl)acetamide], the pIC50 is 6.69 in [6], 5.56 in test [2] and 8.25 in test [3].
On to `CNC(=O)c1ccccc1Nc1nc(Nc2ccc(N3CCOCC3)cc2OC)ncc1Cl` [TAE226], for which the “reduction of tumour burden compared with vehicle-treated controls” value in [7] is listed as 46-64%. In addition, the cell growth entry in [8] (in vitro) is “inhibited cell growth in a time- and dose-dependent manner”. Moreover, the “enhancement of docetaxel-mediated growth inhibition” value in test [8] (taxane-resistant cell lines) is recorded as 20 fold; in [8] (taxane-sensitive cell lines) it was 10 fold. Moreover, in test [9], the “phosphorylation of FAK at Y397 and Y861 sites” value is “inhibited”.
